Read-outs that look alike come from different tables or passages of the source.

One experiment has as its target human IR(B) (Homo sapiens, UniProt P06213). The experiment in a line: Insulin receptor phosphorylation assay (MSD pIR). It counts as cell-based. The note with it: CHO cells expressing human IR(B), IP = inflection point, read-out: IR Activation IP.
The target in experiment [1] is T1, Human macrophage mannose receptor 1 (MRC1) (Homo sapiens, UniProt P22897).
T1 sequence (P22897 19-1456): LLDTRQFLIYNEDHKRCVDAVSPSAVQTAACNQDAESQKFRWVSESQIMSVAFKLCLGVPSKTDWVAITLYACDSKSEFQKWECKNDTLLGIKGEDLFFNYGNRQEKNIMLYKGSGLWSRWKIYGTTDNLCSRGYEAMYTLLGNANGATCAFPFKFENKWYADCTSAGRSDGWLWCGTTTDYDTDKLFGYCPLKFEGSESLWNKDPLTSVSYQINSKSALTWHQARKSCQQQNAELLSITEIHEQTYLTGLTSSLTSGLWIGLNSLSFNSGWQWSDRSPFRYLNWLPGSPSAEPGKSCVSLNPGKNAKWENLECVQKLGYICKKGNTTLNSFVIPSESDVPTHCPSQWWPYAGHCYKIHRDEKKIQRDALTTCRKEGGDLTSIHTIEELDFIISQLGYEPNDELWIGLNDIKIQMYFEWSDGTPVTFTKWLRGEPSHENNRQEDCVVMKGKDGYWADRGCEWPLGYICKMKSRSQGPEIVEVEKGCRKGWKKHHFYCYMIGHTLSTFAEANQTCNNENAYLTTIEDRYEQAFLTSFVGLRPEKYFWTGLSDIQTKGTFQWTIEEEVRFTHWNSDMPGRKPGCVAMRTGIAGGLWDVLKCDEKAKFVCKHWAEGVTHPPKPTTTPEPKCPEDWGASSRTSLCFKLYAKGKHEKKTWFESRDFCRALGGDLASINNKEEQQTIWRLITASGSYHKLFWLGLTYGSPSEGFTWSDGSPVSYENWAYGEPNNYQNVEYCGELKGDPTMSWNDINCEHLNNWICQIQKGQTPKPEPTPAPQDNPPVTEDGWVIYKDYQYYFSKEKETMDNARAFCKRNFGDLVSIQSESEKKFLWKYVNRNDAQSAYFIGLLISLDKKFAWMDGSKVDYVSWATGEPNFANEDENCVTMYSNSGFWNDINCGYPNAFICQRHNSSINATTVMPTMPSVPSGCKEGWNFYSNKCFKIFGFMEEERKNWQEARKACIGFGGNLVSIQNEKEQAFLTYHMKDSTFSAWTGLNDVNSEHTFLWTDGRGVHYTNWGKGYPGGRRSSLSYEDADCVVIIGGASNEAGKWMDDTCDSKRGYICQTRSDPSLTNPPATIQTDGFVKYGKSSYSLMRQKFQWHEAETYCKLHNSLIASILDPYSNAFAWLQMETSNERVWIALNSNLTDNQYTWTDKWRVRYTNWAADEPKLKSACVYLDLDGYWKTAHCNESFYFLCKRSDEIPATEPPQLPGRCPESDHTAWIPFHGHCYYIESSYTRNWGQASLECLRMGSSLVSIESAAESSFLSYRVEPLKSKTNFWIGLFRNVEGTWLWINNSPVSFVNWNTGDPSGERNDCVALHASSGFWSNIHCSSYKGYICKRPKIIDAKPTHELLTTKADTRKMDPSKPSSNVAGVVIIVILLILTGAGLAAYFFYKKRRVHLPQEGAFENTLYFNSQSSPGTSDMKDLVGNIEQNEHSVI
The experiment in a line: MRC1 competition binding assay with Eu-mannosylated-BSA. To be noted: IP = inflection point, read-out: MRC1 Binding IP.
Method: The competition binding assay for Human macrophage mannose receptor 1 (MRC1) utilized a ligand, mannosylated-BSA labeled with the DELFIA Eu-N1-ITC reagent, as reported in the literature. Assay was performed either in a 96-well plate with 100 μL well volume (Method E) or in a 384-well plate with 25 μL well volume (Method F). […] The antibody was incubated in the plate for 1 hr at rt with shaking. The plate was washed with wash buffer 3-5 times followed by addition of MRC1 (2 ng/μl final concentration) in PBS containing 1% stabilizer BSA. The plate was incubated at rt with gentle shaking for 1 hr. The plate was washed three times with wash buffer. The IOC molecules in 12.5 μL (or 50 μL depending on plate format) buffer at appropriate concentrations were added followed by 12.5 μL (or 50 μL) Eu-mannosylated-BSA (0.1 nm final concentration) in 50 mM Tris, pH 7.5 containing 100 mM NaCl, 5 mM CaCl2, 1 mM MgCl2 and 0.2% stabilizer BSA. The plate was incubated for 2 hrs at rt with shaking followed by washing three times with wash buffer.

Setting [2] is: Method A: IR phosphorylation assay, 96-well.
Where [3] appears, read: Method B: IR phosphorylation assay, 384-well with automated liquid dispense.

Sequence of human IR(B) (P06213 28-758 limits assumed): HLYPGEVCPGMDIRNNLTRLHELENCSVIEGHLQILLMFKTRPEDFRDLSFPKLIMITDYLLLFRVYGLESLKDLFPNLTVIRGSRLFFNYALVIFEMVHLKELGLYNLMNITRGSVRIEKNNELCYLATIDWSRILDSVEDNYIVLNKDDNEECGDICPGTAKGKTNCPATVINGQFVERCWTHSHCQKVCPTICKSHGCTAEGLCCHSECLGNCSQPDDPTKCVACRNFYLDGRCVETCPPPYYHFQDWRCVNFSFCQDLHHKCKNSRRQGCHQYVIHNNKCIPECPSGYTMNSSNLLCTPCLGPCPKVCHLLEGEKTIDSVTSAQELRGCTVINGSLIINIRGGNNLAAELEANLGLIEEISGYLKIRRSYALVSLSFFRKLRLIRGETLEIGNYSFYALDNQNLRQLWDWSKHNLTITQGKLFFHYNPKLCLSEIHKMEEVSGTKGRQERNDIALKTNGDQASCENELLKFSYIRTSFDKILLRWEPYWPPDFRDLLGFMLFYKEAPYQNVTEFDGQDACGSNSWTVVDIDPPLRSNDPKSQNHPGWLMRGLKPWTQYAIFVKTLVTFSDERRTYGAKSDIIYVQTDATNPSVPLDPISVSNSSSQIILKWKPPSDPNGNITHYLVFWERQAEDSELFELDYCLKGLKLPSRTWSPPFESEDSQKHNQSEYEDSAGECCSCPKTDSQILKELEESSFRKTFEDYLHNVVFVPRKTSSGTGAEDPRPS
Sequence of human IR(B) (P06213 763-1382 partner limits assumed): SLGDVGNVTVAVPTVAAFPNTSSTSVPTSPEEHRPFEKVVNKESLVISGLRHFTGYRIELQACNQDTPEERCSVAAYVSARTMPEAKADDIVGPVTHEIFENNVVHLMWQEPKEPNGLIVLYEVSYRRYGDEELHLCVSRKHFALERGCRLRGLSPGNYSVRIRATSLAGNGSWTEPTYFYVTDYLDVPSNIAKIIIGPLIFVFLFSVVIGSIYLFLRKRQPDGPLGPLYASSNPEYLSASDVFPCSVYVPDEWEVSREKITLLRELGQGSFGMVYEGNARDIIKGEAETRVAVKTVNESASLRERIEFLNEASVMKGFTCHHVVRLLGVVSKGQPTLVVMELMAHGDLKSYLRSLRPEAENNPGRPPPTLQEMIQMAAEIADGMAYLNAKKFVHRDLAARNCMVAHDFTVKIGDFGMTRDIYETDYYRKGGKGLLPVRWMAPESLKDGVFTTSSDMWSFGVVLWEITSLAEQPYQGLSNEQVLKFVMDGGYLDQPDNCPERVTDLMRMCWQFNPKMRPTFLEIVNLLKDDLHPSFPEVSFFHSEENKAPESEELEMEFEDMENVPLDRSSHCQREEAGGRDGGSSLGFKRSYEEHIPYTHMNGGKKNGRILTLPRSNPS
Method for human IR(B): CHO cells stably expressing human IR(B) were in grown in F12 cell media containing 10% FBS and antibiotics (G418, Penicillin/Strepavidin) for at least 8 hr, and then serum starved by switching to F12 media containing 0.5% BSA (insulin-free) in place of FBS for overnight growth. Cells were harvested and frozen in aliquots for use in the MSD pIR assay. Briefly, the frozen cells were plated in either 96-well (40,000 cells/well, Methods A) or 384-well (10,000 cells/well, Method B) clear tissue culture plates and allowed to recover. IOC molecules at the appropriate concentrations were added and the cells incubated for 8 min at 37° C. The media was aspirated and chilled MSD cell lysis buffer was added as per MSD kit instructions. The cells were lysed on ice for 40 min and the lysate then mixed for 10 min at rt. The lysate was transferred to the MSD kit pIR detection plates. The remainder of the assay was carried out following the MSD kit recommended protocol.
The in vitro biological activities towards insulin receptor (IR) were measured by either ligand competition assays or functional phosphorylation assays, as described above, labeled as following: Method A: IR phosphorylation assay based on 96-well; Method B: IR phosphorylation assay based on 384-well with automated liquid dispense; Method C: cell-based IR binding assay; Method D: SPA IR binding assay method E; Method E: MRC1 assay was performed in a 96-well plate; Method F: MRC1 assay was performed in a 384-well plate.

Regarding `CC(=O)[C@H](CCCCN)NC(=O)CCCCC(=O)N[C@@H](CCC(=O)NCCO[C@@H]1O[C@@H](C)[C@@H](O)[C@@H](O)[C@@H]1O)C(=O)N[C@@H](CCC(=O)NCCO[C@@H]1O[C@@H](C)[C@@H](O)[C@@H](O)[C@@H]1O)C(=O)N[C@@H](CCC(=O)NCCO[C@@H]1O[C@@H](C)[C@@H](O)[C@@H](O)[C@@H]1O)C(=O)NCCO[C@@H]1O[C@@H](C)[C@@H](O)[C@@H](O)[C@@H]1O` [IOC-19], the EC50 at human IR(B) (setting [2]) was found to be 0.81 nM. In addition, the IC50 in experiment [1] (Method E: 96-well plate) was 16 nM. With `CC(=O)[C@H](CCCCN)NC(=O)[C@H](CCCCNC(=O)CCCCC(=O)N(CCOC1O[C@H](CO)[C@@H](O)[C@H](O)[C@@H]1O)CCOC1O[C@H](CO)[C@@H](O)[C@H](O)[C@@H]1O)NC(=O)[C@H](CCCNC(=O)CCCCC(=O)N(CCOC1O[C@H](CO)[C@@H](O)[C@H](O)[C@@H]1O)CCOC1O[C@H](CO)[C@@H](O)[C@H](O)[C@@H]1O)NC(=O)CCCCC(=O)N(CCOC1O[C@H](CO)[C@@H](O)[C@H](O)[C@@H]1O)CCOC1O[C@H](CO)[C@@H](O)[C@H](O)[C@@H]1O` (stereo partly shown) [IOC-44], at human IR(B) (setting [2]), the EC50 was 8.4 nM. In addition, the IC50 in experiment [1] (Method E: 96-well plate) was found to be 31.3 nM.

For the compound `CC(=O)[C@H](CCCCN)NC(=O)CCCCC(=O)NCC(=O)N[C@@H](CCC(=O)N[C@@H](CCC(=O)NCCCCCC(=O)N(CC(=O)NCCO[C@H]1O[C@H](CO)[C@@H](O)[C@H](O)[C@@H]1O)CC(=O)NCCO[C@@H]1O[C@@H](C)[C@@H](O)[C@@H](O)[C@@H]1O)C(=O)NCCCCCC(=O)N(CC(=O)NCCO[C@H]1O[C@H](CO)[C@@H](O)[C@H](O)[C@@H]1O)CC(=O)NCCO[C@@H]1O[C@@H](C)[C@@H](O)[C@@H](O)[C@@H]1O)C(=O)NCCCCCC(=O)N(CC(=O)NCCO[C@H]1O[C@H](CO)[C@@H](O)[C@H](O)[C@@H]1O)CC(=O)NCCO[C@@H]1O[C@@H](C)[C@@H](O)[C@@H](O)[C@@H]1O` [IOC-50], the EC50 at human IR(B) (setting [3]) was found to be 0.84 nM. Besides, the IC50 in experiment [1] (Method F: 384-well plate) worked out at 13.1 nM.

As for `CC(=O)[C@H](CCCCN)NC(=O)CCCCC(=O)N[C@@H](CCC(=O)NCCCC[C@@H](C(=O)NCCO[C@H]1O[C@H](CO)[C@@H](O)[C@H](O)[C@@H]1O)N(CC(=O)NCCO[C@H]1O[C@H](CO)[C@@H](O)[C@H](O)[C@@H]1O)CC(=O)NCCO[C@H]1O[C@H](CO)[C@@H](O)[C@H](O)[C@@H]1O)C(=O)N[C@@H](CCC(=O)NCCCC[C@@H](C(=O)NCCO[C@H]1O[C@H](CO)[C@@H](O)[C@H](O)[C@@H]1O)N(CC(=O)NCCO[C@H]1O[C@H](CO)[C@@H](O)[C@H](O)[C@@H]1O)CC(=O)NCCO[C@H]1O[C@H](CO)[C@@H](O)[C@H](O)[C@@H]1O)C(=O)N[C@@H](CC(C)C)C(=O)NCCCC[C@@H](C(=O)NCCO[C@H]1O[C@H](CO)[C@@H](O)[C@H](O)[C@@H]1O)N(CC(=O)NCCO[C@H]1O[C@H](CO)[C@@H](O)[C@H](O)[C@@H]1O)CC(=O)NCCO[C@H]1O[C@H](CO)[C@@H](O)[C@H](O)[C@@H]1O` [IOC-56], the IC50 in experiment [1] (Method E: 96-well plate) was found to be 30.9 nM. As to `CC(=O)[C@H](CCCCN)NC(=O)CCCCC(=O)N[C@@H](CCC(=O)NCCCC[C@@H](C(=O)NCCO[C@@H]1O[C@H](CO)[C@@H](O)[C@H](O)[C@H]1O)N(CC(=O)NCCO[C@@H]1O[C@H](CO)[C@@H](O)[C@H](O)[C@H]1O)CC(=O)NCCO[C@@H]1O[C@H](CO)[C@@H](O)[C@H](O)[C@H]1O)C(=O)N[C@@H](CCC(=O)NCCCC[C@@H](C(=O)NCCO[C@@H]1O[C@H](CO)[C@@H](O)[C@H](O)[C@H]1O)N(CC(=O)NCCO[C@@H]1O[C@H](CO)[C@@H](O)[C@H](O)[C@H]1O)CC(=O)NCCO[C@@H]1O[C@H](CO)[C@@H](O)[C@H](O)[C@H]1O)C(=O)N[C@@H](CC(C)C)C(=O)NCCCC[C@@H](C(=O)NCCO[C@@H]1O[C@H](CO)[C@@H](O)[C@H](O)[C@H]1O)N(CC(=O)NCCO[C@@H]1O[C@H](CO)[C@@H](O)[C@H](O)[C@H]1O)CC(=O)NCCO[C@@H]1O[C@H](CO)[C@@H](O)[C@H](O)[C@H]1O` [IOC-57], in experiment [1] (Method E: 96-well plate), the IC50 came out at 1560 nM. As to `CC(=O)[C@H](CCCCN)NC(=O)CCCCCNC(=O)[C@H](CCCCNC(=O)CCCCC(=O)NCCCC[C@@H](C(=O)NCCO[C@@H]1O[C@@H](C)[C@@H](O)[C@@H](O)[C@@H]1O)N(CC(=O)NCCO[C@@H]1O[C@@H](C)[C@@H](O)[C@@H](O)[C@@H]1O)CC(=O)NCCO[C@@H]1O[C@@H](C)[C@@H](O)[C@@H](O)[C@@H]1O)NC(=O)[C@H](CCCCNC(=O)CCCCC(=O)NCCCC[C@@H](C(=O)NCCO[C@@H]1O[C@@H](C)[C@@H](O)[C@@H](O)[C@@H]1O)N(CC(=O)NCCO[C@@H]1O[C@@H](C)[C@@H](O)[C@@H](O)[C@@H]1O)CC(=O)NCCO[C@@H]1O[C@@H](C)[C@@H](O)[C@@H](O)[C@@H]1O)NC(=O)CCCCC(=O)NCCCC[C@@H](C(=O)NCCO[C@@H]1O[C@@H](C)[C@@H](O)[C@@H](O)[C@@H]1O)N(CC(=O)NCCO[C@@H]1O[C@@H](C)[C@@H](O)[C@@H](O)[C@@H]1O)CC(=O)NCCO[C@@H]1O[C@@H](C)[C@@H](O)[C@@H](O)[C@@H]1O` [IOC-58], the EC50 at human IR(B) (setting [3]) was found to be 1.17 nM. Moreover, the IC50 in experiment [1] (Method F: 384-well plate) came out at 0.87 nM. The corresponding values for `CC(=O)[C@H](CCCCN)NC(=O)CCCCCNC(=O)[C@H](CCCCNC(=O)CCCCCNC(=O)CN(CC(=O)NCCO[C@@H]1O[C@@H](C)[C@@H](O)[C@@H](O)[C@@H]1O)CC(=O)N(CCOC1C[C@H](CO)[C@@H](O)[C@H](O)[C@@H]1O)CCOC1O[C@H](CO)[C@@H](O)[C@H](O)[C@@H]1O)NC(=O)[C@H](CCCCNC(=O)CCCCCNC(=O)CN(CC(=O)NCCO[C@@H]1O[C@@H](C)[C@@H](O)[C@@H](O)[C@@H]1O)CC(=O)N(CCOC1C[C@H](CO)[C@@H](O)[C@H](O)[C@@H]1O)CCOC1O[C@H](CO)[C@@H](O)[C@H](O)[C@@H]1O)NC(=O)CCCCCNC(=O)CN(CC(=O)NCCO[C@@H]1O[C@@H](C)[C@@H](O)[C@@H](O)[C@@H]1O)CC(=O)N(CCOC1O[C@H](CO)[C@@H](O)[C@H](O)[C@@H]1O)CCOC1O[C@H](CO)[C@@H](O)[C@H](O)[C@@H]1O` (stereo partly shown) [IOC-59] are 1.98 nM and 2.58 nM. As to `CC(=O)[C@H](CCCCN)NC(=O)CCCCCNC(=O)[C@H](CCCCNC(=O)[C@H](CCCCNC(=O)[C@H](CCCCNC(=O)[C@H](CCCCNC(=O)CCCCCCNC(=O)CN(CC(=O)NCCO[C@H]1O[C@H](CO)[C@@H](O)[C@H](O)[C@@H]1O)CC(=O)NCCO[C@H]1O[C@H](CO)[C@@H](O)[C@H](O)[C@@H]1O)NC(=O)CN(CC(=O)NCCO[C@H]1O[C@H](CO)[C@@H](O)[C@H](O)[C@@H]1O)CC(=O)NCCO[C@H]1O[C@H](CO)[C@@H](O)[C@H](O)[C@@H]1O)NC(=O)CN(CC(=O)NCCO[C@H]1O[C@H](O)[C@@H](O)[C@H](O)[C@@H]1O)CC(=O)NCCO[C@H]1O[C@H](CO)[C@@H](O)[C@H](O)[C@@H]1O)NC(=O)CN(CC(=O)NCCO[C@H]1O[C@H](CO)[C@@H](O)[C@H](O)[C@@H]1O)CC(=O)NCCO[C@H]1O[C@H](CO)[C@@H](O)[C@H](O)[C@@H]1O)NC(=O)CN(CC(=O)NCCO[C@H]1O[C@H](CO)[C@@H](O)[C@H](O)[C@@H]1O)CC(=O)NCCO[C@H]1O[C@H](CO)[C@@H](O)[C@H](O)[C@@H]1O` [IOC-60], the IC50 in experiment [1] (Method F: 384-well plate) turned out to be 86.4 nM.

For the origin of these results see patent publication US12427187B2, “Glucose-responsive insulin conjugates” (priority 2019, dated 2025).
